Data from patent EP4737451A1 (Dong Wha Pharm. Co., Ltd., priority 2023, dated 2025).

Target: T1, IRAK4 enzyme (Homo sapiens, UniProt Q9NWZ3)
T1 construct: purchased Promega V2621
T1 sequence (Q9NWZ3 1-460): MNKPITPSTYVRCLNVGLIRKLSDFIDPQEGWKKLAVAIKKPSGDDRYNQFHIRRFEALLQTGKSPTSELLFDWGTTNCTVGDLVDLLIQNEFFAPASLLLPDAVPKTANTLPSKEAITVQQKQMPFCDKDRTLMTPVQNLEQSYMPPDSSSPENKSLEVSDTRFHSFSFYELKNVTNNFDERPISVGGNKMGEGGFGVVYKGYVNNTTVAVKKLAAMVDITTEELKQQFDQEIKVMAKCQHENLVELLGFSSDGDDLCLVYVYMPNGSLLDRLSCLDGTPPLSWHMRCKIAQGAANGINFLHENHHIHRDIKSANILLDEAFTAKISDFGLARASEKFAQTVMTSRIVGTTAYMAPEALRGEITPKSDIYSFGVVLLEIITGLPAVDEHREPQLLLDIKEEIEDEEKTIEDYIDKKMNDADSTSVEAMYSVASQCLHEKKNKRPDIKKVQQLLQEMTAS
Assay: IRAK4 enzyme activity inhibition (ADP-Glo, Promega kit)
Type: biochemical
Conditions: for inhibition at 0.1 µM: test compound 0.1 uM; for inhibition at 1 µM: test compound 1 uM
Procedure: An experiment on IRAK4 enzyme activity inhibition of the compound of the present invention was conducted.
An IRAK4 enzyme kit (purchased from Promega, product number: V2621) was used to dilute a mixed solution between 0.1 µg/µL of myelin basic protein (MBP), which is an enzyme-reactive substrate, and 1.25 mM of ATP with a reaction buffer (40 mM Tris-HCl, pH 7.5; 20 mM MgCl2; 0.1 mg/mL BSA; 50 µM DTT) according to the instructions, so as to dispense 2 µL in a 384-well white plate, and then to add 1 µL of a test compound, which was gradient diluted starting from 1 mM, to a 384-well plate. After that, an IRAK4 enzyme was diluted with a reaction buffer to a final concentration of 5 ng/µL, then 2 µL/well was dispensed into a 384-well white plate and reacted at 37°C for 60 minutes. After completion of a reaction, an ADP-GloTM enzyme test kit (purchased from Promega, product number: V9102) was used to add 5 µL of ADP-Glo reaction reagent and cause a reaction at 37°C for 40 minutes, and then 10 µL of enzyme chromogenic reagent was added again to measure a luminescence signal using equipment for measuring absorbance (THECAN, Microplate Reader). An activity inhibition rate was calculated from a measured value, and a 50% inhibition concentration (IC50 value) was analyzed through a non-linear regression analysis based on the % inhibition for each concentration of the test compound, and is shown in Table 2.

| SMILES | inhibition at 0.1 µM [%] | inhibition at 1 µM [%] | IC50 [nM] |
| --- | --- | --- | --- |
| CC(C)(O)CCn1cc2cc(NC(=O)c3cccc(S(N)(=O)=O)c3)c(-c3ccc(C(=O)NCC(F)(F)F)cc3)cc2n1 [Example 42, N-(2-(3-hydroxy-3-methylbutyl)-6-(4-((2,2,2-trifluoroethyl)carbamoyl)phenyl)-2H-indazol-5-yl)-3-sulfamoylbenzamide] | 65.1 |  |  |
| CC(C)(O)CCn1cc2cc(NC(=O)c3cccc(C(N)=O)c3)c(-c3ccoc3)cc2n1 [Example 6, N-(6-(furan-3-yl)-2-(3-hydroxy-3-methylbutyl)-2H-indazol-5-yl)isophthalamide] | 35.5 | 67 |  |
| CC(C)(O)CCn1cc2cc(NC(=O)c3cccc([N+](=O)[O-])c3)c(-c3ccsc3)cc2n1 [Example 8, N-(2-(3-hydroxy-3-methylbutyl)-6-(thiophen-3-yl)-2H-indazol-5-yl)-3-nitrobenzamide] | 21.7 | 50.3 |  |
| CC(C)(O)CCn1cc2cc(NC(=O)c3cncc([N+](=O)[O-])c3)c(-c3ccoc3)cc2n1 [Example 5, N-(6-(furan-3-yl)-2-(3-hydroxy-3-methylbutyl)-2H-indazol-5-yl)-5-nitronicotinamide] | 27.9 | 35.4 |  |
| COCCn1cc2cc(NC(=O)c3cccc([N+](=O)[O-])c3)c(N3CCOCC3)cc2n1 [Example 11, N-(2-(2-methoxyethyl)-6-morpholino-2H-indazol-5-yl)-3-nitrobenzamide] | 40.4 | 56.9 |  |
| O=C(Nc1cc2cn(CCN3CCCCC3)nc2cc1N1CCOCC1)c1cccc([N+](=O)[O-])c1 [Example 9, N-(6-morpholino-2-(2-(piperidin-1-yl)ethyl)-2H-indazol-5-yl)-3-nitrobenzamide] | 56.9 | 79.5 |  |
| CONC(=O)c1ccc(-c2cc3nn(CCC(C)(C)O)cc3cc2NC(=O)c2cccc(S(N)(=O)=O)c2)cc1 [Example 44, N-(2-(3-hydroxy-3-methylbutyl)-6-(4-(methoxycarbamoyl)phenyl)-2H-indazol-5-yl)-3-sulfamoylbenzamide] | 61.9 |  |  |
| CN(C)CCn1cc2cc(NC(=O)c3cccc([N+](=O)[O-])c3)c(N3CCOCC3)cc2n1 [Example 10, N-(2-(2-(dimethylamino)ethyl)-6-morpholino-2H-indazol-5-yl)-3-nitrobenzamide] | 49.5 | 83.4 | 99.7 |
| CC(C)(O)CCn1cc2cc(NC(=O)c3cccc([N+](=O)[O-])c3)c(-c3ccoc3)cc2n1 [Example 4, N-(6-(furan-3-yl)-2-(3-hydroxy-3-methylbutyl)-2H-indazol-5-yl)-3-nitrobenzamide] | 42.1 | 67.4 |  |
| CC(C)(O)CCn1cc2cc(NC(=O)c3cncc([N+](=O)[O-])c3)c(-c3ccsc3)cc2n1 [Example 7, N-(2-(3-hydroxy-3-methylbutyl)-6-(thiophen-3-yl)-2H-indazol-5-yl)-5-nitronicotinamide] | 28.1 | 57.7 |  |
| CN(C)CCn1cc2cc(NC(=O)c3cccc(-c4nccs4)c3)c(-c3ccsc3)cc2n1 [Example 12, N-(2-(2-(dimethylamino)ethyl)-6-(thiophen-3-yl)-2H-indazol-5-yl)-3-(thiazol-2-yl)benzamide] | 31.5 |  |  |
